Experimental findings from patent US20250099433A1, “COMPOSITION AND METHOD FOR TREATMENT OF GRAM NEGATIVE BACTERIAL INFECTION” (The Research Foundation for the State University of New York, priority 2021, published 2025) are described below.

Structures are written as SMILES. Values after ≈ are worked out from the molar mass of the structure shown. Some results are limits rather than exact numbers.

In general, MIC refers to the lowest concentration that inhibits growth of the organism. Broadly, the Ki is the dissociation constant of the complex between target and ligand, obtained from inhibition or displacement. Read a low Ki as higher affinity. As usually defined, the koff is the rate constant with which the complex falls apart. What is called kon is a measure of how fast the partners come together.

One test deals with paLpxC (Pseudomonas aeruginosa (strain ATCC 15692 / DSM 22644 / CIP 104116 / JCM 14847 / LMG 12228 / 1C / PRS 101 / PAO1), UniProt P47205). Description: biochemical. The note with it: for tR (min) Fluorescence assay: tR = 1/koff; for koff: read-out: Koff (s^−1); for kon: read-out: Kon (μM^−1s^−1). The class given is binding.
The test system of another test is P. aeruginosa PAO1. Kind of test: MIC by microbroth dilution, P. aeruginosa PAO1. The conditions noted are these: Pseudomonas aeruginosa, PAO1, read-out: MIC (μM) (PAO1). (Broth dilution looks for growth in wells or tubes with falling amounts of substance.)
Test [1] has as its system efflux-pump mutant strain (ΔMexABCDXY) (paEP). Description: MIC by microbroth dilution, efflux-pump mutant P. aeruginosa. The note with it: Pseudomonas aeruginosa, read-out: MIC (μM) (paEP).
Excerpt: Bacterial Strains. […] The efflux-pump deficient P. aeruginosa strain (ΔMexABCDXY), N150, was derived from PAO1.
Minimum Inhibitory Concentration (MIC) Measurements.
The mark [2] stands for this setting: 37° C., fluorescence competition.

paLpxC, sequence (P47205 1-299): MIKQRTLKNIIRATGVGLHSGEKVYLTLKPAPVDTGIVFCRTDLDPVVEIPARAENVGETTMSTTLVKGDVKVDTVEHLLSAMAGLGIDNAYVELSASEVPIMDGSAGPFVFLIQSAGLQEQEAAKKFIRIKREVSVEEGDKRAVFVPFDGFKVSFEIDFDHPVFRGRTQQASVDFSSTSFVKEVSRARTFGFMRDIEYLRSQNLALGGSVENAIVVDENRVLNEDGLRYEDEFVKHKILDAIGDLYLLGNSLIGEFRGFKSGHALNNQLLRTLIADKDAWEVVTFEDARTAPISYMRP

On to `C[C@@H](O)C(NC(=O)c1ccc(-c2cn(Cc3ccccc3)nn2)cc1)C(=O)NO` (stereo partly drawn) [PT903, 4-(1-benzyl-1H-1,2,3-triazol-4-yl)-N-((3R)-3-hydroxy-1-(hydroxyamino)-1-oxobutan-2-yl)benzamide], for which, on paLpxC (setting [2]), the “binding to paLpxC (Kon, Koff, tR, Ki)” value is given as “No binding was observed”. For the same compound, the figures for the MIC (in the test on P. aeruginosa PAO1; in test [1]) were above 50 µM and above 12.5 µM, respectively.
At paLpxC (setting [2]), `CC(CCn1ccc(-c2ccc(-c3cn(Cc4cccnc4)nn3)cc2)cc1=O)(C(=O)NO)S(C)(=O)=O` (racemic) [PT917, N-hydroxy-2-methyl-2-(methylsulfonyl)-4-(2-oxo-4-(4-(1-(pyridin-3-ylmethyl)-1H-1,2,3-triazol-4-yl)phenyl)pyridin-1(2H)-yl)butanamide] gave a Ki of 0.0032 ± 0.0002 nM. In addition, the “tR (min) Fluorescence assay” value on paLpxC (37° C.) amounted to 121.3 ± 4.4 min. In addition, the “residence time fold longer than 1” value on paLpxC (fluorescence assay, 37° C.) is around 3 fold. At paLpxC, the koff is 0.00014 ± 1e-05 s⁻¹ and the kon worked out at 42.8 ± 1.3 µM⁻¹ s⁻¹.
Compound `CC(CCn1ccc(-c2ccc(-c3cn(Cc4ccncn4)nn3)cc2)cc1=O)(C(=O)NO)S(C)(=O)=O` (racemic) [PT916, N-hydroxy-2-methyl-2-(methylsulfonyl)-4-(2-oxo-4-(4-(1-(pyrimidin-4-ylmethyl)-1H-1,2,3-triazol-4-yl)phenyl)pyridin-1(2H)-yl)butanamide] displayed a Ki on paLpxC (setting [2]) of 0.0042 ± 0.0022 nM. The “tR (min) Fluorescence assay” value on paLpxC (37° C.) worked out at 102.7 ± 20.2 min. In addition, at paLpxC, the koff amounted to 0.00017 ± 3e-05 s⁻¹ and the kon was 44.3 ± 14.5 µM⁻¹ s⁻¹. In addition, the MIC with P. aeruginosa PAO1 came to 50 µM (≈ 26.2 µg/mL). Also, in test [1], the MIC was 3.12 µM (≈ 1.64 µg/mL).
For `COc1ccc(-c2ccn(CCC(C)(C(=O)NO)S(C)(=O)=O)c(=O)c2)cc1` (racemic) [PT902, N-hydroxy-4-(4-(4-methoxyphenyl)-2-oxopyridin-1(2H)-yl)-2-methyl-2-(methylsulfonyl)butanamide], the figures for the MIC (in the test with P. aeruginosa PAO1; in test [1]) were 3.12 µM (≈ 1.23 µg/mL) and 0.8 µM (≈ 0.316 µg/mL), respectively.
For the compound `CC(CCn1ccc(-c2ccc(NC(=O)Cc3ccccc3)cc2)cc1=O)(C(=O)NO)S(C)(=O)=O` (racemic) [PT924, N-hydroxy-2-methyl-2-(methylsulfonyl)-4-(2-oxo-4-(4-(2-phenylacetamido)phenyl)pyridin-1(2H)-yl)butanamide], the Ki on paLpxC (setting [2]) turned out to be 0.0954 ± 0.0162 nM. Moreover, the “tR (min) Fluorescence assay” value at paLpxC (37° C.) is recorded as 4.0 ± 1.0 min. On paLpxC, the koff was 0.0043 ± 0.0009 s⁻¹ and the kon was found to be 44.8 ± 5.4 µM⁻¹ s⁻¹. Besides, in the test with P. aeruginosa PAO1, the MIC came out at 50 µM (≈ 24.9 µg/mL). In addition, the MIC in test [1] was determined as 3.12 µM (≈ 1.55 µg/mL).
In the case of `CC(CCn1ccc(-c2ccc(-c3cn(Cc4ccncc4)nn3)cc2)cc1=O)(C(=O)NO)S(C)(=O)=O` (racemic) [PT915, N-hydroxy-2-methyl-2-(methylsulfonyl)-4-(2-oxo-4-(4-(1-(pyridin-4-ylmethyl)-1H-1,2,3-triazol-4-yl)phenyl)pyridin-1(2H)-yl)butanamide], the MIC in the test with P. aeruginosa PAO1 came to 50 µM (≈ 26.1 µg/mL); in test [1], 6.25 µM (≈ 3.27 µg/mL).
In the case of `CC1(Cn2cc(-c3ccc(-c4ccn(CCC(C)(C(=O)NO)S(C)(=O)=O)c(=O)c4)cc3)nn2)COC1` (racemic) [PT911, N-hydroxy-2-methyl-4-(4-(4-(1-((3-methyloxetan-3-yl)methyl)-1H-1,2,3-triazol-4-yl)phenyl)-2-oxopyridin-1(2H)-yl)-2-(methylsulfonyl)butanamide], the MIC in the test with P. aeruginosa PAO1 was 25 µM (≈ 12.9 µg/mL); in test [1], 1.56 µM (≈ 0.804 µg/mL).
At paLpxC (setting [2]), `CC(CCn1ccc(-c2ccc(CN3CCOCC3)cc2)cc1=O)(C(=O)NO)S(C)(=O)=O` (racemic) [PT904, N-hydroxy-2-methyl-2-(methylsulfonyl)-4-(4-(4-(morpholinomethyl)phenyl)-2-oxopyridin-1(2H)-yl)butanamide] came in with a Ki of 0.0968 ± 0.003 nM. For the same compound, the “tR (min) Fluorescence assay” value at paLpxC (37° C.) was found to be 4.7 ± 0.2 min. At paLpxC, the koff came out at 0.0035 ± 0.0001 s⁻¹ and the kon was determined as 36.4 ± 0.4 µM⁻¹ s⁻¹. The MIC with P. aeruginosa PAO1 was found to be 50 µM (≈ 23.2 µg/mL).
